According to patent US8658568B2, “6-amino-2-substituted-5-vinylsilylpyrimidine-4-carboxylic acids and esters and 4-amino-6-substituted-3-vinylsilylpyridine-2-carboxylic acids and esters as herbicides” (Dow AgroSciences, LLC., priority 2011, dated 2014):

Assays:
[1] = system: ABUTH = velvetleaf (Abutilon theophrasti); test: Postemergence herbicidal activity, velvetleaf; type: in vivo; conditions: post-emergence, 336 h, post-emergent, visual score after 14 days (0 no injury, 100 complete kill), read-out: % Growth Reduction ABUTH; for pest or weed control at 140 g/ha: rate 140 g ai/ha; for pest or weed control at 280 g/ha: rate 280 g ai/ha
Method: (§1) Evaluation of Postemergence Herbicidal Activity
(§2) Seeds or nutlets of the desired test plant species were planted in Sun Gro MetroMix® 306 planting mixture, which typically has a pH of 6.0 to 6.8 and an organic matter content of about 30 percent, in plastic pots with a surface area of 64 square centimeters. When required to ensure good germination and healthy plants, a fungicide treatment and/or other chemical or physical treatment was applied. The plants were grown for 7-21 days in a greenhouse with an approximate 15 hour photoperiod which was maintained at about 23-29° C. during the day and 22-28° C. during the night. Nutrients and water were added on a regular basis and supplemental lighting was provided with overhead metal halide 1000-Watt lamps as necessary. The plants were employed for testing when they reached the first or second true leaf stage.
(§3) A weighed amount, determined by the highest rate to be tested, of each test compound was placed in a 25 mL glass vial and was dissolved in 4 mL of a 97:3 v/v (volume/volume) mixture of acetone and dimethyl sulfoxide (DMSO) to obtain concentrated stock solutions. […] The concentrated stock solutions obtained were diluted with 20 mL of an aqueous mixture containing acetone, water, isopropyl alcohol, DMSO, Atplus 411F crop oil concentrate, and Triton® X-155 surfactant in a 48.5:39:10:1.5:1.0:0.02 v/v ratio to obtain spray solutions containing the highest application rates. Additional application rates were obtained by serial dilution of 12 mL of the high rate solution into a solution containing 2 mL of 97:3 (v/v) mixture of acetone and dimethyl sulfoxide (DMSO) and 10 mL of an aqueous mixture containing acetone, water, isopropyl alcohol, DMSO, Atplus 411F crop oil concentrate, and Triton X-155 surfactant in a 48.5:39:10:1.5:1.0:0.02 (v/v) ratio to obtain 1/2 ×, 1/4 ×, 1/8× and 1/16× rates of the high rate. Compound requirements are based upon a 12 mL application volume at a rate of 187 L/ha. Formulated compounds were applied to the plant material with an overhead Mandel track sprayer equipped with a 8002E nozzles calibrated to deliver 187 L/ha over an application area of 0.503 square meters at a spray height of 18 inches (43 cm) above the average plant canopy height. Control plants were sprayed in the same manner with the solvent blank.
(§4) The treated plants and control plants were placed in a greenhouse as described above and watered by sub-irrigation to prevent wash-off of the test compounds. After 14 days, the condition of the test plants as compared with that of the untreated plants was determined visually and scored on a scale of 0 to 100 percent where 0 corresponds to no injury and 100 corresponds to complete kill
(§5) By applying the well-accepted probit analysis as described by J. Berkson in Journal of the […], 48, 565 (1953) and by D. Finney in “Probit Analysis” Cambridge University Press (1952), the above data can be used to calculate GR50 and GR80 values, which are defined as growth reduction factors that correspond to the effective dose of herbicide required to kill or control 50 percent or 80 percent, respectively, of a target plant.

[2] = system: AMARE = redroot pigweed (Amaranthus retroflexus); test: Postemergence herbicidal activity, redroot pigweed; type: in vivo; conditions: post-emergence, 336 h, post-emergent, rate 140 g ai/ha, visual score after 14 days (0 no injury, 100 complete kill), read-out: % Growth Reduction AMARE
Method: as §1, §2, §3, §4, §5

[3] = system: ECHCG = barnyardgrass (Echinochloa crus-galli); test: Postemergence herbicidal activity, barnyardgrass; type: in vivo; conditions: post-emergence, 336 h, post-emergent, visual score after 14 days (0 no injury, 100 complete kill), read-out: % Growth Reduction ECHCG; for pest or weed control at 140 g/ha: rate 140 g ai/ha; for pest or weed control at 280 g/ha: rate 280 g ai/ha
Method: as §1, §2, §3, §4, §5

[4] = system: HELAN = sunflower (Helianthus annuus); test: Postemergence herbicidal activity, sunflower; type: in vivo; conditions: post-emergence, 336 h, post-emergent, visual score after 14 days (0 no injury, 100 complete kill), read-out: % Growth Reduction HELAN; for pest or weed control at 140 g/ha: rate 140 g ai/ha; for pest or weed control at 280 g/ha: rate 280 g ai/ha
Method: as §1, §2, §3, §4, §5

[5] = system: CHEAL = lambsquarters (Chenopodium album); test: Postemergence herbicidal activity, lambsquarters; type: in vivo; conditions: post-emergence, 336 h, post-emergent, visual score after 14 days (0 no injury, 100 complete kill), read-out: % Growth Reduction CHEAL; for pest or weed control at 140 g/ha: rate 140 g ai/ha; for pest or weed control at 280 g/ha: rate 280 g ai/ha
Method: as §1, §2, §3, §4, §5

[6] = system: IPOHE = ivyleaf morningglory (Ipomoea hederacea); test: Postemergence herbicidal activity, ivyleaf morningglory; type: in vivo; conditions: post-emergence, 336 h, post-emergent, visual score after 14 days (0 no injury, 100 complete kill), read-out: % Growth Reduction IPOHE; for pest or weed control at 140 g/ha: rate 140 g ai/ha; for pest or weed control at 280 g/ha: rate 280 g ai/ha
Method: as §1, §2, §3, §4, §5

[7] = system: EPHHL = wild poinsettia (Euphorbia heterophylla); test: Postemergence herbicidal activity, wild poinsettia; type: in vivo; conditions: post-emergence, 336 h, post-emergent, visual score after 14 days (0 no injury, 100 complete kill), read-out: % Growth Reduction EPHHL; for pest or weed control at 140 g/ha: rate 140 g ai/ha; for pest or weed control at 280 g/ha: rate 280 g ai/ha
Method: as §1, §2, §3, §4, §5

COC(=O)c1nc(-c2ccc(Cl)c(F)c2F)nc(N)c1/C=C/[Si](C)(C)C [Compound 1, (E)-methyl 6-amino-2-(4-chloro-2,3-difluorophenyl)-5-(2-(trimethylsilyl)vinyl)pyrimidine-4-carboxylate]
pest or weed control at 140 g/ha [1]: 100% | pest or weed control at 140 g/ha [2]: 100% | pest or weed control at 140 g/ha [3]: 85% | pest or weed control at 140 g/ha [4]: 90% | pest or weed control at 140 g/ha [5]: 100% | pest or weed control at 140 g/ha [6]: 80% | pest or weed control at 140 g/ha [7]: 50%

COC(=O)c1nc(-c2ccc(Cl)c(OC)c2F)nc(N)c1/C=C/[Si](C)(C)C [Compound 2, (E)-methyl 6-amino-2-(4-chloro-2-fluoro-3-methoxyphenyl)-5-(2-(trimethylsilyl)vinyl)-pyrimidine-4-carboxylate]
pest or weed control at 140 g/ha [1]: 98% | pest or weed control at 140 g/ha [2]: 100% | pest or weed control at 140 g/ha [3]: 98% | pest or weed control at 140 g/ha [4]: 100% | pest or weed control at 140 g/ha [6]: 90% | pest or weed control at 140 g/ha [7]: 100% | melting point: 161 to 163 °C

COC(=O)c1nc(-c2ccc(Cl)cc2F)nc(N)c1/C=C/[Si](C)(C)C [Compound 3, (E)-methyl 6-amino-2-(4-chloro-2-fluorophenyl)-5-(2-(trimethylsilyl)vinyl)pyrimidine-4-carboxylate]
pest or weed control at 140 g/ha [1]: 100% | pest or weed control at 140 g/ha [2]: 100% | pest or weed control at 140 g/ha [3]: 0% | pest or weed control at 140 g/ha [4]: 90% | pest or weed control at 140 g/ha [5]: 100% | pest or weed control at 140 g/ha [6]: 70% | pest or weed control at 140 g/ha [7]: 100%

CCOC(=O)c1nc(C2CC2)nc(N)c1/C=C/[Si](C)(C)C [Compound 4, (E)-ethyl 6-amino-2-cyclopropyl-5-(2-(trimethylsilyl)vinyl)pyrimidine-4-carboxylate]
pest or weed control at 140 g/ha [1]: 0% | pest or weed control at 140 g/ha [3]: 0% | pest or weed control at 140 g/ha [4]: 0% | pest or weed control at 140 g/ha [5]: 100% | pest or weed control at 140 g/ha [6]: 100% | pest or weed control at 140 g/ha [7]: 100%

C[Si](C)(C)/C=C/c1c(N)nc(-c2ccc(Cl)c(F)c2F)nc1C(=O)O [Compound 5, (E)-6-amino-2-(4-chloro-2,3-difluorophenyl)-5-(2-(trimethylsilyl)vinyl)pyrimidine-4-carboxylic acid]
pest or weed control at 140 g/ha [1]: 100% | pest or weed control at 140 g/ha [2]: 90% | pest or weed control at 140 g/ha [3]: 50% | pest or weed control at 140 g/ha [4]: 90% | pest or weed control at 140 g/ha [5]: 100% | pest or weed control at 140 g/ha [6]: 60% | pest or weed control at 140 g/ha [7]: 100%

C[Si](C)(C)/C=C/c1c(N)nc(-c2ccc(Cl)cc2F)nc1C(=O)O [Compound 7, (E)-6-amino-2-(4-chloro-2-fluorophenyl)-5-(2-(trimethylsilyl)vinyl)pyrimidine-4-carboxylic acid]
pest or weed control at 140 g/ha [1]: 100% | pest or weed control at 140 g/ha [2]: 100% | pest or weed control at 140 g/ha [3]: 80% | pest or weed control at 140 g/ha [4]: 90% | pest or weed control at 140 g/ha [5]: 100% | pest or weed control at 140 g/ha [6]: 70% | pest or weed control at 140 g/ha [7]: 100%

C[Si](C)(C)/C=C/c1c(N)nc(C2CC2)nc1C(=O)O [Compound 8, (E)-6-amino-2-cyclopropyl-5-(2-(trimethylsilyl)vinyl)pyrimidine-4-carboxylic acid]
pest or weed control at 280 g/ha [1]: 0% | pest or weed control at 280 g/ha [3]: 0% | pest or weed control at 280 g/ha [4]: 65% | pest or weed control at 280 g/ha [5]: 65% | pest or weed control at 280 g/ha [6]: 78% | pest or weed control at 280 g/ha [7]: 100%

CCO[Si](/C=C/c1c(N)nc(-c2ccc(Cl)c(OC)c2F)nc1C(=O)OC)(OCC)OCC [Compound 9, (E)-methyl 6-amino-2-(4-chloro-2-fluoro-3-methoxyphenyl)-5-(2-(triethoxysilyl)vinyl)pyrimidine-4-carboxylate]
pest or weed control at 140 g/ha [1]: 100% | pest or weed control at 140 g/ha [3]: 80% | pest or weed control at 140 g/ha [4]: 90% | pest or weed control at 140 g/ha [5]: 100% | pest or weed control at 140 g/ha [6]: 80% | pest or weed control at 140 g/ha [7]: 100%

COc1c(Cl)ccc(-c2nc(N)c(/C=C/[Si](O)(O)O)c(C(=O)O)n2)c1F [Compound 10, (E)-6-amino-2-(4-chloro-2-fluoro-3-methoxyphenyl)-5-(2-(trihydroxysilyl)vinyl)pyrimidine-4-carboxylic acid]
pest or weed control at 140 g/ha [1]: 100% | pest or weed control at 140 g/ha [3]: 80% | pest or weed control at 140 g/ha [4]: 100% | pest or weed control at 140 g/ha [5]: 100% | pest or weed control at 140 g/ha [6]: 80% | pest or weed control at 140 g/ha [7]: 100%

COC(=O)c1nc(-c2ccc(Cl)c(F)c2)c(F)c(N)c1/C=C/[Si](C)(C)C [Compound 11, (E)-methyl 4-amino-6-(4-chloro-3-fluorophenyl)-5-fluoro-3-(2-(trimethylsilyl)vinyl)picolinate]
pest or weed control at 140 g/ha [1]: 80% | pest or weed control at 140 g/ha [2]: 100% | pest or weed control at 140 g/ha [3]: 0% | pest or weed control at 140 g/ha [4]: 90% | pest or weed control at 140 g/ha [5]: 100% | pest or weed control at 140 g/ha [6]: 70% | pest or weed control at 140 g/ha [7]: 80%

C[Si](C)(C)/C=C/c1c(C(=O)O)nc(-c2ccc(Cl)c(F)c2)c(F)c1N [Compound 14, (E)-4-amino-6-(4-chloro-3-fluorophenyl)-5-fluoro-3-(2-(trimethylsilyl)vinyl)picolinic acid]
pest or weed control at 140 g/ha [1]: 65% | pest or weed control at 140 g/ha [3]: 70% | pest or weed control at 140 g/ha [4]: 80% | pest or weed control at 140 g/ha [5]: 100% | pest or weed control at 140 g/ha [6]: 80% | pest or weed control at 140 g/ha [7]: 100%

C[Si](C)(C)/C=C/c1c(C(=O)O)nc(-c2ccc(Cl)cc2)c(F)c1N [Compound 15, (E)-4-amino-6-(4-chlorophenyl)-5-fluoro-3-(2-(trimethylsilyl)vinyl)picolinic acid]
pest or weed control at 140 g/ha [1]: 80% | pest or weed control at 140 g/ha [2]: 100% | pest or weed control at 140 g/ha [3]: 80% | pest or weed control at 140 g/ha [4]: 90% | pest or weed control at 140 g/ha [5]: 90% | pest or weed control at 140 g/ha [6]: 70% | pest or weed control at 140 g/ha [7]: 90%

CCc1nc(C(=O)O)c(/C=C/[Si](C)(C)C)c(N)c1F [Compound 16, (E)-4-amino-6-ethyl-5-fluoro-3-(2-(trimethylsilyl)vinyl)picolinic acid]
pest or weed control at 280 g/ha [1]: 5% | pest or weed control at 280 g/ha [3]: 0% | pest or weed control at 280 g/ha [4]: 20% | pest or weed control at 280 g/ha [5]: 10% | pest or weed control at 280 g/ha [6]: 60% | pest or weed control at 280 g/ha [7]: 0%
